The source of these data is patent US20100292178A1, “Method of treating non-insulin dependent diabetes mellitus and related complications” (priority 2003, published 2010).

Data set [1] has as its system patients with diabetic limb-end gangrene. Nature of the data set: Clinical observation of diabetic limb-end gangrene treated with Glucosynergy.
On the set-up of data set [2]: species or system domestic rabbits. The settings on record: rabbit, in vivo. Here is the method: The effect of the berberine is the most quickly and distributed extensively, when the berberine is labeled with Hydrogen 3 and is administered to domestic rabbits by direct feeding that berberine is injected through a non-invasive tube directly through the mouth or by injection. […] The total amount in the blood plasma is 38%±3%.
(§1) All samples are calibrated by using an internal standard.

A short description of data set [3]: Excretion of labeled berberine after injection into large mice. To be noted: within six days after injection. The class given is in vivo.
Text: Within the six days after the injection of the labeled berberine into large mice, the amounts of the labeled berberine found in the mice's urine and feces were 73% and 10.9% of the injected concentration respectively. The labeled berberine found in the urine was primarily the original form although some of it became metabolized products.
as §1

The conditions of data set [4]: rabbit, in vivo. Here is the method: Pharmokinetic properties of berberine are performed by conventional method involving radioactive isotope. […] All samples are calibrated by using an internal standard.
300 μg quinidine is added to the test tube as an internal standard. One ml chloroform is added into the test tube, which is shaken for ten minutes. Then, the test tube is centrifuged at 400 rev/min for five minutes with a sufficient gravity for separating residues from its liquid. An absolute amount of 0.8 ml of the chloroform is collected by a pipette and is subsequently dried by blowing air. The residue from the dried chloroform is collected and dissolved in a suitable amount of dry ethanol which contains essentially no water. The sample is ready for analysis using thin layer chromatography.
A silica gel plate is cut into nine strips, each being 1.0 cm wide. Separation is conducted under running buffer of ethyl acetate, ethyl methanoate, methanol and water mixture at a ratio of 5.4:4.6:1.2:1.0. The sample size is 5 μl. When a desirable separation is achieved, the strips are scanned for reflective intensity at wavelength λex, 350 nm and λem 550 nm using Japanese Shimatsu CS-900 double wavelengths thin layer reflective straight line scanner with a Xenon lamp. […] All scans are performed with 0.5 mm×10 mm slit, at scanning speed 20 mm/min, and at recording paper speed 10 mm/min.
After the blood serum's pH is adjusted to basic, ethyl ether is used to extract berberine. After it is dried, the residues are dissolved in a mobile phase. A fixed amount of sample is introduced into the HPLC system containing a reverse C18 column. The mobile phase is methanol, water and ethylenediamine at a ratio of 75:25:0.5. The pH is adjusted to 6.8 by using acetic acid. Concentration or amount is monitored at wavelength (λ) 345 nm.
C=Ae^−a+Be^−β−(A−B)e^−kat, where ka is average rate constant weighed by their coefficients: ka=(Aβ+Bα)/(A+B).

The nature of data set [5]: Pharmacokinetics of a single oral dose of berberine in human patients. The class given is in vivo. The settings on record: 300 mg orally.
The conditions of data set [6]: cited from earlier work.
Setting [7] is: 70 cases Observation Group, 50 cases Contrast Group.
The mark [8] stands for this setting: Treatment Group 18 cases, Contrast Group 6 cases.

Read-outs that look alike come from different tables or passages of the source.

Take `CN(C)C(=N)N=C(N)N` [Glucophage]: in data set [1] (setting [7]), the “electrocardiogram hypertrophic cardiomyopathy: effective” value is 12 cases, the “electrocardiogram hypertrophic cardiomyopathy: not effective” value was 35 cases, the “electrocardiogram hypertrophic cardiomyopathy: outstandingly effective” value turned out to be 3 cases and the “electrocardiogram hypertrophic cardiomyopathy: total effective rate” value amounted to 30%. In data set [1] (After Treatment), the Fibrinogen was 3.45 ± 0.44 q/L, the HDL is listed as 1.12 ± 0.24 mmol/L, the LDL stood at 4.51 ± 0.81 mmol/L and the “Red Cells Accumulation” value came out at 49.50 ± 4.86%. Moreover, in data set [1] (After Treatment), the TC came to 5.40 ± 0.76 mmol/L, the TG was 3.39 ± 0.76 mmol/L, the “Total Blood Viscosity High Excise” value worked out at 6.33 ± 0.34 mpa · s and the “Total Blood Viscosity Low Excise” value is given as 15.19 ± 2.10 mpa · s. For the same molecule, the “Viscosity Plasma” value in data set [1] (After Treatment) is recorded as 2.45 ± 0.37. Besides, in data set [1] (Before Treatment), the Fibrinogen is 3.90 ± 0.81 q/L, the HDL is listed as 1.07 ± 0.20 mmol/L, the LDL amounted to 5.27 ± 1.24 mmol/L and the “Red Cells Accumulation” value was determined as 49.58 ± 4.34%. In addition, in data set [1] (Before Treatment), the TC was 5.89 ± 1.17 mmol/L, the TG was 3.54 ± 0.67 mmol/L, the “Total Blood Viscosity High Excise” value was determined as 6.23 ± 0.57 mpa · s and the “Total Blood Viscosity Low Excise” value came to 15.21 ± 2.17 mpa · s. Further, in data set [1] (Before Treatment), the “Viscosity Plasma” value is listed as 2.72 ± 0.66. The cases ineffective in data set [1] (Contrast Group 6 cases) stood at 3 cases. In data set [1] (setting [8]), the cases improved was 2 cases and the cases recovered is given as 1 cases. Further, in data set [1] (baseline), the “24 hours fixed quantity of uric sugar, Before Treatment” value came out at 15.23 ± 3.02 g/24 h and the “Serum SOD Vitality, Before Treatment” value is reported as 89.96 ± 18.21 nu/L. For the same molecule, in data set [1] (human, in vivo), the “24 hours fixed quantity of uric sugar, After Treatment” value was determined as 8.37 ± 1.89 g/24 h; the “Serum SOD Vitality, After Treatment” value is reported as 94.21 ± 17.03 nu/L; the “Serum SOD Vitality, Value of Difference” value was −4.25 ± 3.33 nu/L.
Take `COc1ccc2cc3[n+](cc2c1OC)CCc1cc2c(cc1-3)OCO2` [berberine]: in data set [2], the “tissue concentration measured by radiation intensity” value was “the highest in the lung, and then in liver, spleen, kidney and heart”; the “total amount in the blood plasma” value is listed as 38%±3%. Further, in data set [3], the “amount of labeled berberine found in feces” value is given as 10.9 % of the injected concentration and the “amount of labeled berberine found in urine” value is reported as 73 % of the injected concentration. In data set [4], the “time to maximum concentration in the blood” value is “about 50 minutes”. For the same molecule, in data set [4] (iv), the “apparent distribution volume (Vd)” value was 22.1 ± 1.71 L/kg, the “apparent half life for elimination (t½ β)” value amounted to 35.8 ± 2.0 h and the “apparent half life of distribution (t½ α)” value was found to be 1.03 ± 0.11 h. In addition, in data set [4] (po), the apparent drug distribution volume (Vd) came to 20 ± 3 L/kg, the “apparent half life for elimination (t½ β)” value was determined as 35.3 ± 1.3 h, the “apparent half life of distribution (t½ α)” value was found to be 1.41 ± 0.16 h and the “apparent rate constant ka” value is reported as 2.45±0.22 per hour. Also, in data set [5], the “maximum plasma concentration Cmax” value amounted to 0.395 µg/mL and the “t½ corresponding to elimination rate constant Ke” value was determined as 2.94 h. The Tmax in data set [5] (human, plasma, po, read-out: time to peak plasma concentration, tmax) was found to be 2.37 h. For the same molecule, the half-life in data set [5] (human, plasma, po, read-out: t½ corresponding to apparent absorption rate constant ka (converted)) was 0.87 h.
For `OC[C@H]1O[C@@H](O[C@@H]2OC=C[C@H]3[C@H](O)[C@@H]4O[C@]4(CO)[C@@H]23)[C@H](O)[C@@H](O)[C@@H]1O` [catalpol], the “solubility in lipophilic organic solvents” value in data set [6] (chloroform, benzene, petroleum ether) is “almost insoluble”. Further, the “solubility in water and methanol” value in data set [6] was “highly soluble”.
